From paper PMC8445441, “Elucidating the mechanism by which synthetic helper peptides sensitize Pseudomonas aeruginosa to multiple antibiotics” (PLoS Pathogens, 2021)
Where two headings read alike, the source gives them in different places. Each block holds one molecule with its values, some of them ahead of it.

Key:
[1] = tested on: P. aeruginosa AUMC-Pa-3; test: microbe, parasite or virus in culture; settings: for FICI: antibiotic + D-11 (MICb/MICbc 128/4); for MICac: MIC of the antibiotic in the combination: with D-11 at MICbc 4
Summary of the method: (§1)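 Values are lowest concentrations showing no visible growth after 18 h at 37 °C. Drugs were serially halved in MHB and combined with equal volumes of a roughly 1 × 10^6 CFU/mL suspension, following CLSI guidance, in triplicate.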

[2] = tested on: P. aeruginosa AUMC-Pa-4; test: microbe, parasite or virus in culture; settings: strain AUMC-Pa-4; for FICI: antibiotic + D-11 (MICb/MICbc 128/4); for MICa: MIC of the antibiotic: antibiotic alone; for MICa: MIC of the antibiotic / MICac: MIC of the antibiotic in the combination: unit not given; for MICac: MIC of the antibiotic in the combination: with D-11 at MICbc 4
Summary of the method: as §1

[3] = tested on: P. aeruginosa AUMC-Pa-6; test: microbe, parasite or virus in culture; settings: strain AUMC-Pa-6; for FICI: antibiotic + D-11 (MICb/MICbc 64/4); for MICa: MIC of the antibiotic: antibiotic alone; for MICa: MIC of the antibiotic / MICac: MIC of the antibiotic in the combination: unit not given; for MICac: MIC of the antibiotic in the combination: with D-11 at MICbc 4
Summary of the method: as §1

[4] = tested on: P. aeruginosa PAO1; test: microbe, parasite or virus in culture; settings: PAO1; for MIC: Pseudomonas aeruginosa, PAO1, 18 h
Summary of the method: as §1

[5] = tested on: P. aeruginosa AUMC-Pa-5; test: microbe, parasite or virus in culture; settings: for FICI: antibiotic + D-11 (MICb/MICbc 64/4); for MICac: MIC of the antibiotic in the combination: with D-11 at MICbc 4
Summary of the method: as §1

[6] = tested on: P. aeruginosa NR-31041; test: microbe, parasite or virus in culture; set-up: MICa: MIC of the antibiotic / MICac: MIC of the antibiotic in the combination: unit not given beside the values; settings: strain NR-31041; for FICI: antibiotic + D-11 (MICb/MICbc 64/4); for MICa: MIC of the antibiotic: antibiotic alone; for MICa: MIC of the antibiotic / MICac: MIC of the antibiotic in the combination: unit not given; for MICac: MIC of the antibiotic in the combination: with D-11 at MICbc 4
Protocol: (§2) The MIC tests were performed in triplicate using broth microdilution in accordance with Clinical and Laboratory Standards Institute (CLSI) recommendations (http://iacld.ir/DL/public/CLSI-2018-M100-S28.pdf). Briefly, drugs were two-fold diluted in MHB and mixed with an equal volume of bacterial suspensions containing approximately 1 × 10^6 CFU/mL in 96-well microliter plate. After 18 h incubation at 37 °C, the MIC values were defined as the lowest concentrations of antibiotics with no visible growth of bacteria. […] Otherwise, 1/4 MIC of the peptide was used in the combination. […] If needed, membrane compounds PG, PE, PC, CL or LPS, or membrane stabilizers MgCl2 or CaCl2, or efflux pumps inhibitor PAβN were added to the broth medium to clarify the effect of other substances on the synergy between peptide and antibiotics. All the tests were performed in triplicate.
(§3) The fractional inhibitory concentration (FIC) indices were calculated using the previously described formula FICI = FICa + FICb = MICac/MICa + MICbc/MICb. The FICI was interpreted according to EUCAST [65] as follows: synergistic, FICI≤0.5; additive, 0.5<FICI≤1; indifferent, 1<FICI<2; antagonistic, FICI ≥2. For the FICI calculations, twice the highest concentration tested was used in the cases where the MIC was not reached.

[7] = tested on: P. aeruginosa PAK; test: microbe, parasite or virus in culture; set-up: MICa: MIC of the antibiotic / MICac: MIC of the antibiotic in the combination: unit not given beside the values; settings: strain PAK; for FICI: antibiotic + D-11 (MICb/MICbc 64/4); for MICa: MIC of the antibiotic: antibiotic alone; for MICa: MIC of the antibiotic / MICac: MIC of the antibiotic in the combination: unit not given; for MICac: MIC of the antibiotic in the combination: with D-11 at MICbc 4
Protocol: as §2, §3

[8] = tested on: P. aeruginosa ATCC27853; test: microbe, parasite or virus in culture; set-up: MICa: MIC of the antibiotic / MICac: MIC of the antibiotic in the combination: unit not given beside the values; settings: strain ATCC27853; for FICI: antibiotic + D-11 (MICb/MICbc 32/4); for MICa: MIC of the antibiotic: antibiotic alone; for MICa: MIC of the antibiotic / MICac: MIC of the antibiotic in the combination: unit not given; for MICac: MIC of the antibiotic in the combination: with D-11 at MICbc 4
Protocol: as §2, §3

[9] = tested on: P. aeruginosa PA14; test: microbe, parasite or virus in culture; set-up: MICa: MIC of the antibiotic / MICac: MIC of the antibiotic in the combination: unit not given beside the values; settings: strain PA14; for FICI: antibiotic + D-11 (MICb/MICbc 128/4); for MICa: MIC of the antibiotic: antibiotic alone; for MICa: MIC of the antibiotic / MICac: MIC of the antibiotic in the combination: unit not given; for MICac: MIC of the antibiotic in the combination: with D-11 at MICbc 4
Protocol: as §2, §3

[10] = tested on: P. aeruginosa NR-31040; test: microbe, parasite or virus in culture; set-up: MICa: MIC of the antibiotic / MICac: MIC of the antibiotic in the combination: unit not given beside the values; settings: strain NR-31040; for FICI: antibiotic + D-11 (MICb/MICbc 128/4); for MICa: MIC of the antibiotic: antibiotic alone; for MICa: MIC of the antibiotic / MICac: MIC of the antibiotic in the combination: unit not given; for MICac: MIC of the antibiotic in the combination: with D-11 at MICbc 4
Protocol: as §2, §3

[11] = tested on: clinical P. aeruginosa isolates; test: microbe, parasite or virus in culture; settings: Pseudomonas aeruginosa, 18 h, antibiotic alone
Summary of the method: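 MIC is the lowest drug concentration showing no visible growth after 18 h at 37 °C. Two-fold dilutions in MHB were combined with an equal volume of bacterial suspension (about 1 × 10^6 CFU/mL), following CLSI broth microdilution, in triplicate.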

[12] = tested on: P. aeruginosa AUMC-Pa-2; settings: strain AUMC-Pa-2; antibiotic + D-11 (MICb/MICbc 64/4)
Protocol: as §2, §3

[13] = tested on: P. aeruginosa AUMC-Pa-1; settings: strain AUMC-Pa-1; antibiotic + D-11 (MICb/MICbc 128/4)
Protocol: as §2, §3

[14] = tested on: P. aeruginosa HM-214; settings: strain HM-214; antibiotic + D-11 (MICb/MICbc 128/4)
Protocol: as §2, §3

[15] = strain AUMC-Pa-3, unit not given
[16] = strain AUMC-Pa-5, unit not given
[17] = read-out: Antibiotic sensibility (MIC) of clinical P. aeruginosa isolate AUMC-Pa-1, strain AUMC-Pa-1
[18] = read-out: Antibiotic sensibility (MIC) of clinical P. aeruginosa isolate AUMC-Pa-2, strain AUMC-Pa-2
[19] = read-out: Antibiotic sensibility (MIC) of clinical P. aeruginosa isolate AUMC-Pa-3, strain AUMC-Pa-3
[20] = read-out: Antibiotic sensibility (MIC) of clinical P. aeruginosa isolate AUMC-Pa-4, strain AUMC-Pa-4
[21] = read-out: Antibiotic sensibility (MIC) of clinical P. aeruginosa isolate AUMC-Pa-5, strain AUMC-Pa-5
[22] = read-out: Antibiotic sensibility (MIC) of clinical P. aeruginosa isolate AUMC-Pa-6, strain AUMC-Pa-6
[23] = read-out: Antibiotic sensibility (MIC) of clinical P. aeruginosa isolate HM-214, strain HM-214
[24] = read-out: Antibiotic sensibility (MIC) of clinical P. aeruginosa isolate NR-31040, strain NR-31040
[25] = read-out: Antibiotic sensibility (MIC) of clinical P. aeruginosa isolate NR-31041, strain NR-31041

MICa: MIC of the antibiotic ([1]; strain AUMC-Pa-3, antibiotic alone, unit not given): 64
MICac: MIC of the antibiotic in the combination [1, 15]: 2
MICa: MIC of the antibiotic [2]: 64
MICac: MIC of the antibiotic in the combination [2]: 32
MICa: MIC of the antibiotic [3]: 64
MICac: MIC of the antibiotic in the combination [3]: 32
MIC ([4]; read-out: MICa: the MIC of antibiotics, S1 Table, macrolide alone): 64 µM
MICa: MIC of the antibiotic ([5]; strain AUMC-Pa-5, antibiotic alone, unit not given): 64
MICac: MIC of the antibiotic in the combination [5, 16]: 32
MICa: MIC of the antibiotic [6]: 128
MICac: MIC of the antibiotic in the combination [6]: 16
MICa: MIC of the antibiotic [7]: 64
MICac: MIC of the antibiotic in the combination [7]: 16
MICa: MIC of the antibiotic [8]: 64
MICac: MIC of the antibiotic in the combination [8]: 8
MICa: MIC of the antibiotic [9]: 64
MICac: MIC of the antibiotic in the combination [9]: 16
MICa: MIC of the antibiotic [10]: 128
MICac: MIC of the antibiotic in the combination [10]: 64
MIC [11, 17]: 128 µM
MIC [11, 18]: 64 µM
MIC [11, 19]: 64 µM
MIC [11, 20]: 64 µM
MIC [11, 21]: 64 µM
MIC [11, 22]: 64 µM
MIC [11, 23]: 128 µM
MIC [11, 24]: 128 µM
MIC [11, 25]: 128 µM
Structure (SMILES): CC[C@H]1OC(=O)[C@H](C)C(=O)[C@H](C)[C@@H](O[C@@H]2O[C@H](C)C[C@H](N(C)C)[C@H]2O)[C@](C)(OC)C[C@@H](C)C(=O)[C@H](C)[C@H]2N(CCCCn3cnc(-c4cccnc4)c3)C(=O)O[C@]12C [Telithromycin]
FICI ([1]; strain AUMC-Pa-3): 0.063
FICI [2]: 0.531
FICI [3]: 0.563
FICI ([5]; strain AUMC-Pa-5): 0.563
FICI [6]: 0.188
FICI [7]: 0.313
FICI [8]: 0.250
FICI [9]: 0.281
FICI [10]: 0.531
FICI [12]: 0.313
FICI [13]: 0.156
FICI [14]: 0.156

Structure (SMILES): C[C@@H](O)[C@H]1C(=O)N2C(C(=O)O)=C(S[C@@H]3CN[C@H](C(=O)N(C)C)C3)[C@H](C)[C@H]12 [Meropenem]
MIC ([1]; Pseudomonas aeruginosa, AUMCPA3, 18 h, read-out: MICa: MIC of the antibiotic): 0.25 µM
FICI ([1]; strain AUMC-Pa-3): 1.031
MICac: MIC of the antibiotic in the combination [1, 15]: 0.25/0.25
FICI [2]: 1.031
MICa: MIC of the antibiotic [2]: 2/2
MICac: MIC of the antibiotic in the combination [2]: 2/2
FICI [3]: 2.063
MICa: MIC of the antibiotic [3]: 2
MICac: MIC of the antibiotic in the combination [3]: 4
MIC ([4]; read-out: MICa: the MIC of antibiotics, S3 Table, antibiotic alone): 2 µM
FICI ([4]; S3 Table, antibiotic + 4 μM D-11): 0.375
MICac: the MIC for the antibiotic in the combination ([4]; S3 Table, with 2 μM D-11): 1 µM
MICac: the MIC for the antibiotic in the combination ([4]; S3 Table, with 4 μM D-11): 0.5 µM
MIC ([5]; Pseudomonas aeruginosa, AUMCPA5, 18 h, read-out: MICa: MIC of the antibiotic): 0.25 µM
FICI ([5]; strain AUMC-Pa-5): 2.063
MICac: MIC of the antibiotic in the combination [5, 16]: 0.5
FICI [6]: 0.563
MICa: MIC of the antibiotic [6]: 4
MICac: MIC of the antibiotic in the combination [6]: 2
FICI [7]: 1.063
MICa: MIC of the antibiotic [7]: 1/1
MICac: MIC of the antibiotic in the combination [7]: 1/1
FICI [8]: 1.125
MICa: MIC of the antibiotic [8]: 1/1
MICac: MIC of the antibiotic in the combination [8]: 1/1
FICI [9]: 1.031
MICa: MIC of the antibiotic [9]: 2/2
MICac: MIC of the antibiotic in the combination [9]: 2/2
FICI [10]: 0.531
MICa: MIC of the antibiotic [10]: 2
MICac: MIC of the antibiotic in the combination [10]: 1
MIC [11, 17]: 1 µM
MIC [11, 18]: 1 µM
MIC [11, 19]: 0.25 µM
MIC [11, 20]: 2 µM
MIC [11, 21]: 0.25 µM
MIC [11, 22]: 2 µM
MIC [11, 23]: 0.25 µM
MIC [11, 24]: 2 µM
MIC [11, 25]: 4 µM
FICI [12]: 2.063
FICI [13]: 1.031
FICI [14]: 1.031
